The text below walks through data of patent publication US9096686B2, “E518A/K mutant smoothened and methods of using the same” (Genentech, Inc., priority 2010, dated 2015).

“Also recorded” adds a separate entry of the source. Like-named read-outs stand apart in the source and are kept apart here.

In one data set the target is T1, SMO-E518K (Homo sapiens, UniProt Q99835, E518K).
T1 construct: expressed in transfected cells; host or cells: C3H10T1/2 mouse fibroblasts (ATCC CCL-226), pRK5 vector, CMV promoter
In words: Gli-luciferase reporter assay, SMO-E518K overexpression in C3H10T½ cells. In kind it is cell-based. How it is done: (§1) Regions targeted by alanine scan mutagenesis are indicated in light grey. […] Values were normalized to maximum activity levels and represent means±SDs.
(§2) Circles mark the A-, B- and C-rings of some compounds as indicated for HhAntag.
(§3) Gli-luciferase reporter assays. Gli-luciferase reporter assays were performed as described (Rudin, C. M. et al. (2009) N. Engl. J. Med. 361:1173-1178) with the following modifications; C3H10T½ cells (ATCC, CCL-226) were seeded into six-well plates at 1.85×10^5 cells/well and values shown are the mean of four separate experiments ±1 standard deviation (SD).
(§4) These compounds were either identified in high-throughput screens (both in house and by others) or were generated by hit-to-lead optimization of screening hits using traditional medicinal chemistry methods. C3H10T½ cells were co-transfected with wild type or mutant SMO expression vectors together with a Gli-luciferase reporter construct (Murone M. et al. (1999) Curr. Biol. 9(2):76-84), and pathway activation was measured in the presence or absence of 1 μM compound.
In general terms: In a reporter assay the amount or activity of a reporter protein is the signal.

Another data set concerns the target T2, SMO-E518A (Homo sapiens, UniProt Q99835, E518A).
T2 construct: expressed in transfected cells; host or cells: C3H10T1/2 mouse fibroblasts (ATCC CCL-226), pRK5 vector, CMV promoter
In words: Gli-luciferase reporter assay, SMO-E518A in C3H10T½ cells. It counts as cell-based. Conditions: dose response; signaling activity despite 1 μM. How it is done: as §1, §3

The subject of another data set is medulloblastoma. Conditions: medulloblastoma patient, widespread metastatic disease; cited from earlier work.
The next data set has as its target T3, SMO-D473H (Homo sapiens, UniProt Q99835, D473H).
T3 construct: expressed in transfected cells; host or cells: C3H10T1/2 mouse fibroblasts (ATCC CCL-226), pRK5 vector, CMV promoter
In words: Gli-luciferase reporter assay, SMO-D473H overexpression in C3H10T½ cells. In kind it is cell-based. How it is done: as §2, §3, §4

Data set [1] in a line: Plasma pharmacokinetics after single oral dose in mice. In kind it is in vivo.
From the text: as §2

Another data set has as its target T4, SMO-WT (Homo sapiens, UniProt Q99835).
T4 construct: expressed in transfected cells; host or cells: C3H10T1/2 mouse fibroblasts (ATCC CCL-226), pRK5 vector, CMV promoter
In words: Gli-luciferase reporter assay, SMO-WT overexpression in C3H10T½ cells. Conditions: 1 μM compound. It counts as cell-based. How it is done: as §2, §3, §4

Data set [2] in a line: Metabolism by human hepatocytes. It counts as in vitro ADME. Conditions: unpublished observation.

T3 sequence (Q99835 28-787 D473H): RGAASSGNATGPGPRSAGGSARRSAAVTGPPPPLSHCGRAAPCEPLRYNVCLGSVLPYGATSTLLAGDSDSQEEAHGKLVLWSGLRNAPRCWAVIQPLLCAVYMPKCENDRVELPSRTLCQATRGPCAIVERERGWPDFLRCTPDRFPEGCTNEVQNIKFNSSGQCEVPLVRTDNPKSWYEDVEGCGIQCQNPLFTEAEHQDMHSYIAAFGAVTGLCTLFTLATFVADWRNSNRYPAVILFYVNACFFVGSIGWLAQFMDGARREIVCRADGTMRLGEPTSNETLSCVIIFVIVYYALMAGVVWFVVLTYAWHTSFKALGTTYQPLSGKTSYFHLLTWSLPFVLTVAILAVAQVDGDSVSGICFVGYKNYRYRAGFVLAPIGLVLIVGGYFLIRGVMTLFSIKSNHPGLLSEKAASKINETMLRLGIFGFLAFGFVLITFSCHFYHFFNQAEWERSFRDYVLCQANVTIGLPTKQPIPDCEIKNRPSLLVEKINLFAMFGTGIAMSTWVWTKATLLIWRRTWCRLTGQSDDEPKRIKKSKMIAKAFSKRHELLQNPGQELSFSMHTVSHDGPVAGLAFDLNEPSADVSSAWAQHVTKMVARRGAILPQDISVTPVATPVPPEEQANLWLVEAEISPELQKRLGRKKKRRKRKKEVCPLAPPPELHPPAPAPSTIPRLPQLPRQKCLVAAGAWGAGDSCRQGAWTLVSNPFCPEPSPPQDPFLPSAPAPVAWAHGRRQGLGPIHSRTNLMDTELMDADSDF
T1 sequence (Q99835 28-787 E518K): as the sequence (Q99835 28-787 D473H) above, with H446D, E491K counted along it
T4 sequence (Q99835 28-787): as the sequence (Q99835 28-787 D473H) above, with H446D counted along it
T2 sequence (Q99835 28-787 E518A): as the sequence (Q99835 28-787 D473H) above, with H446D, E491A counted along it

Take `CS(=O)(=O)c1ccc(C(=O)Nc2ccc(Cl)c(-c3ccccn3)c2)c(Cl)c1` [GDC-0449]: the “resistance of SMO-E518K to the inhibitor, Gli-luciferase reporter activity” value at SMO-E518K (dose response, up to 1 μM) is “completely resistant”. Besides, the “resistance of SMO-E518A to the inhibitor, Gli-luciferase reporter activity” value on SMO-E518A is “partially resistant”. Besides, the “clinical response to treatment” value with medulloblastoma is “dramatic and rapid response”.
For `Cc1nn(-c2ccccc2)c(C)c1/C=N/N1CCN(Cc2ccccc2)CC1` [SANT-1], at SMO-D473H (1 μM compound, C3H10T½ cells), the “potency against SMO-D473H (inhibition of Gli-luciferase activity)” value is given as “partially resistant”. Also, the “potency against SMO-E518K (inhibition of Gli-luciferase activity)” value at SMO-E518K (1 μM compound, C3H10T½ cells) was “sensitive”.
With `O=C(Nc1ccc(Cl)c(NC(=O)c2cccc(Cl)c2)c1)c1ccc(N2CCC(O)CC2)nc1` [compound 4], at SMO-D473H (1 μM compound, C3H10T½ cells), the “potency against SMO-D473H (inhibition of Gli-luciferase activity)” value is reported as “potent; also recorded: improved potencies”. The “potency against SMO-E518K (inhibition of Gli-luciferase activity)” value at SMO-E518K (1 μM compound, C3H10T½ cells) is reported as “potent”. Moreover, in data set [1], the “pharmacokinetic properties in mice” value is listed as “good pharmacokinetic properties”.
Broadly, the half-life is the time in which the quantity being followed falls by half. Low values mean rapid decline, high ones slow decline. Consider `C[C@@H]1CN(c2ccc(C(=O)Nc3ccc(Cl)c(NC(=O)c4cccc(Cl)c4)c3)cn2)C[C@H](C)N1` [compound 5], for which the “potency against SMO-D473H (inhibition of Gli-luciferase activity)” value at SMO-D473H (1 μM compound, C3H10T½ cells) is reported as “potent; also recorded: improved potencies”. For the same compound, the “potency against SMO-E518K (inhibition of Gli-luciferase activity)” value on SMO-E518K (1 μM compound, C3H10T½ cells) was “potent”. Also, the “pharmacokinetic properties in mice” value in data set [1] is recorded as “good pharmacokinetic properties”. The compound also showed a half-life in data set [1] (mouse, single oral 100 mg kg-1 dose, plasma) of 22 h.
In the case of `CC1=C2C[C@H]3[C@@H](CC=C4C[C@@H](O)CC[C@@]43C)[C@@H]2CC[C@]12O[C@@H]1C[C@H](C)CN[C@H]1[C@H]2C` [cyclopamine], the “potency against SMO-D473H (inhibition of Gli-luciferase activity)” value on SMO-D473H is recorded as “partially resistant”. In addition, the “potency against SMO-E518K (inhibition of Gli-luciferase activity)” value on SMO-E518K was “completely resistant”.
On to HhAntag, for which the “activity against wild type SMO (inhibition of Gli-luciferase activity)” value on SMO-WT is recorded as “essentially equipotent against all SMO alleles”. The “potency against SMO-D473H (inhibition of Gli-luciferase activity)” value at SMO-D473H (1 μM compound, C3H10T½ cells) is on record as “essentially equipotent against all SMO alleles”. Besides, the “potency against SMO-E518K (inhibition of Gli-luciferase activity)” value at SMO-E518K (1 μM compound, C3H10T½ cells) is “essentially equipotent against all SMO alleles”. Also, the “metabolism by human hepatocytes” value in data set [2] is reported as “rapidly metabolized”.
